Measured values: patent US20230210999A1, “TARGETED PROTEASE DEGRADATION (TED) PLATFORM” (EUBULUS BIOTHERAPEUTICS INC., priority 2020, published 2023)
Like-named read-outs stand apart in the source and are kept apart here.

Key:
U-87MG cells = test: Cell proliferation experiment, U-87MG; assay type: cell-based; details: Homo sapiens, 72 h, read-out: Inhibitory activity IC50 of tested compounds on U-87MG cells
Description: (§1) Reagents: RPMI-1640 medium, McCoy's 5A medium, IMDM medium, MEM medium, L-15 medium, fetal bovine serum. Penicillin-Streptomycin double antibody, trypsin, etc., 2-mercaptoethanol, NEAA, pyruvate, etc.
(§2) The cells were cultured in conventional ways, and the cells should be passed at least 2 generations before plating. Cells at the logarithmic growth phase were collected, prepared into single cell suspensions and counted. The concentration of cells was adjusted to the desired concentration, and cells were inoculated into a 96-well cell culture plate at 100 μl per well. 100 μL of complete medium of the test compound were added to each well, set up 2 duplicate wells for each concentration, and diluted with a 5-fold gradient, and continued to culture for 72 h. All cells were subjected to IC50 test for corresponding samples. The experimental results are shown in Test Example 4.
(§3) The fluorescence intensity of each well was detected using the Alarm blue method, and IC50 was calculated.
(§4) IC50 was calculated according to the following formula:
(§5) Y=Max+(Min−Max)/[1+(X/IC50)×Slope]
(§6) wherein Min, Max and Slope represent the minimum, maximum and slope respectively.

Daudi cells = test: Cell proliferation experiment, Daudi; assay type: cell-based, human; details: Homo sapiens, Daudi
Summary of the method: (§7)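 Log-phase cells were seeded in 96-well plates and exposed to compound in complete medium over a 5-fold dilution series, in duplicate, for 72 h. Alamar blue fluorescence was read per well and IC50 was obtained by four-parameter curve fitting.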

NCIH82 cells = test: Cell proliferation experiment, NCI-H82; assay type: cell-based, human; details: Homo sapiens
Summary of the method: as §7

MV4;11 cells = test: Cell proliferation experiment (Alamar blue, 72 h), MV4;11; assay type: cell-based, human; details: Homo sapiens
Summary of the method: as §7

HT-29 cells = test: Cell proliferation experiment, HT-29; assay type: cell-based; details: Homo sapiens, read-out: Inhibitory activity IC50 of tested compounds on HT-29 cells
Description: as §1, §2, §3, §4, §5, §6

MDA-MB-231 cells = test: Cell proliferation experiment, MDA-MB-231; assay type: cell-based, human; details: Homo sapiens, MDA-MB-231, MDA-MB-231 cells; read-out: Inhibitory activity IC50 on MDA-MB-231
Summary of the method: as §7

PC-3 = test: Cell proliferation experiment, PC-3; assay type: cell-based, human; details: Homo sapiens, PC-3, PC-3 cells; read-out: Inhibitory activity IC50 on PC-3
Summary of the method: as §7

[1] = 72 h, Daudi cells, 72 h, read-out: Inhibitory activity IC50 of tested compounds on Daudi cells
[2] = NCI-H82, 72 h, NCIH82 cells, 72 h, read-out: Inhibitory activity IC50 of tested compounds on NCIH82 cells
[3] = MV4-11, 72 h, MV4;11 cells, 72 h, read-out: Inhibitory activity IC50 of tested compounds on MV4;11 cells
[4] = 72 h, read-out: Inhibitory activity IC50 of tested compounds on Daudi cells
[5] = NCI-H82, 72 h, read-out: Inhibitory activity IC50 of tested compounds on NCIH82 cells
[6] = MV4-11, 72 h, read-out: Inhibitory activity IC50 of tested compounds on MV4;11 cells
[7] = Daudi cells, read-out: Inhibitory activity IC50 on Daudi
[8] = NCI-H82, NCI-H82 cells, read-out: Inhibitory activity IC50 on NCI-H82
[9] = MV4-11, MV4;11 cells, read-out: Inhibitory activity IC50 on MV4;11

Structure (SMILES) | IC50 (U-87MG cells; U-87MG cells) | IC50 (Daudi cells; [1]) | IC50 (NCIH82 cells; [2]) | IC50 (MV4;11 cells; [3]) | IC50 (HT-29 cells; HT-29 cells, 72 h) | IC50 (MDA-MB-231 cells) | IC50 (Daudi cells; [7]) | IC50 (NCIH82 cells; [8]) | IC50 (PC-3) | IC50 (MV4;11 cells; [9]) | also measured
CC[C@@H]1C(=O)N(C)c2cnc(Nc3ccc(C(=O)NCCCC(N)C(=O)Nc4cccc5c4CN(C4CCC(=O)NC4=O)C5=O)cc3OC)nc2N1C1CCCC1 (stereo in doubt) [Compound 856] | > 1000 nM | > 1000 nM | > 1000 nM | 100 to 1000 nM | – | – | – | – | – | – | –
CC[C@@H]1C(=O)N(C)c2cnc(Nc3ccc(C(=O)NCCOCCOCCOCCNCCC(=O)N[C@H](C(=O)N4C[C@H](O)C[C@H]4C(=O)NCc4ccc(-c5scnc5C)cc4)C(C)(C)C)cc3OC)nc2N1C1CCCC1 [Compound 850] | > 1000 nM | > 1000 nM | > 1000 nM | > 1000 nM | > 1000 nM | – | – | – | – | – | –
CC[C@@H]1C(=O)N(C)c2cnc(Nc3ccc(C(=O)NCCOCCNCC(=O)N[C@H](C(=O)N4C[C@H](O)C[C@H]4C(=O)NCc4ccc(-c5scnc5C)cc4)C(C)(C)C)cc3OC)nc2N1C1CCCC1 [Compound 851] | – | – | – | – | – | – | – | – | – | – | IC50 (U-87MG cells; U-87 MG): > 1000 nM; IC50 (Daudi cells; [4]): > 1000 nM; IC50 (NCIH82 cells; [5]): > 1000 nM; IC50 (HT-29 cells; HT-29, 72 h): > 1000 nM; IC50 (MV4;11 cells; [6]): 100 to 1000 nM
CC[C@@H]1C(=O)N(C)c2cnc(Nc3ccc(C(=O)NC4CCN(CCNCCOCC(=O)N[C@H](C(=O)N5C[C@H](O)C[C@H]5C(=O)NCc5ccc(-c6scnc6C)cc5)C(C)(C)C)CC4)cc3OC)nc2N1C1CCCC1 [Compound 852] | > 1000 nM | > 1000 nM | > 1000 nM | > 1000 nM | > 1000 nM | – | – | – | – | – | –
CC[C@@H]1C(=O)N(C)c2cnc(Nc3ccc(C(=O)NCCOCCNCCC(=O)N[C@H](C(=O)N4C[C@H](O)C[C@H]4C(=O)NCc4ccc(-c5scnc5C)cc4)C(C)(C)C)cc3OC)nc2N1C1CCCC1 [Compound 853] | > 1000 nM | > 1000 nM | > 1000 nM | > 1000 nM | > 1000 nM | – | – | – | – | – | –
CC[C@@H]1C(=O)N(C)c2cnc(Nc3ccc(C(=O)NCCOCCOCCOCCNCC(=O)N[C@H](C(=O)N4C[C@H](O)C[C@H]4C(=O)NCc4ccc(-c5scnc5C)cc4)C(C)(C)C)cc3OC)nc2N1C1CCCC1 [Compound 854] | – | – | – | – | – | – | – | – | – | – | IC50 (U-87MG cells; U-87 MG): > 1000 nM; IC50 (Daudi cells; [4]): > 1000 nM; IC50 (NCIH82 cells; [5]): > 1000 nM; IC50 (HT-29 cells; HT-29, 72 h): > 1000 nM; IC50 (MV4;11 cells; [6]): 100 to 1000 nM
CC[C@@H]1C(=O)N(C)c2cnc(Nc3ccc(C(=O)NC4CCN(CCOCCNC5CN(c6cccc7c6C(=O)N(C6CCC(=O)NC6=O)C7=O)C5)CC4)cc3OC)nc2N1C1CCCC1 (stereo partly shown) [Compound 857] | 500 to 1000 nM | 100 to 1000 nM | ≤ 1000 nM | ≤ 100 nM | > 1000 nM | – | – | – | – | – | –
CC[C@@H]1C(=O)N(C)c2cnc(Nc3ccc(C(=O)NCCOCCNCCOCCC#Cc4cccc5c4CN(C4CCC(=O)NC4=O)C5=O)cc3OC)nc2N1C1CCCC1 (stereo partly shown) [Compound 896] | 500 to 1000 nM | 100 to 1000 nM | > 1000 nM | – | > 1000 nM | – | – | – | – | – | –

Further lines, with some results ahead:

IC50 (U-87MG cells; U-87MG cells) | IC50 (Daudi cells; [1]) | IC50 (NCIH82 cells; [2]) | IC50 (MV4;11 cells; [3]) | IC50 (HT-29 cells; HT-29 cells, 72 h) | IC50 (MDA-MB-231 cells) | IC50 (Daudi cells; [7]) | IC50 (NCIH82 cells; [8]) | IC50 (PC-3) | IC50 (MV4;11 cells; [9]) | Structure (SMILES) | also measured
– | – | – | – | – | 100 to 1000 nM | 100 to 1000 nM | 100 to 1000 nM | 100 to 1000 nM | < 10 nM | CNC(=O)c1ccccc1Nc1nc(Nc2ccc(N3CCN(C(=O)N[C@H]4CC[C@@H](NCCOCCC#Cc5ccc6c(c5)CN(C5CCC(=O)NC5=O)C6=O)CC4)CC3)nc2)ncc1Cl (stereo partly shown) [UB-181142] | –
– | – | – | – | – | 100 to 1000 nM | 10 to 100 nM | 100 to 1000 nM | 100 to 1000 nM | < 10 nM | CNC(=O)c1ccccc1Nc1nc(Nc2ccc(C3CCN(C(=O)N[C@H]4CC[C@@H](NCCC#Cc5ccc6c(c5)CN(C5CCC(=O)NC5=O)C6=O)CC4)CC3)cc2)ncc1Cl (stereo partly shown) [UB-181168] | –
– | – | – | – | – | > 1000 nM | 100 to 1000 nM | 100 to 1000 nM | 10 to 100 nM | 10 to 100 nM | CNC(=O)c1ccccc1Nc1nc(Nc2ccc(N3CCN(C(=O)N[C@H]4CC[C@@H](NCCC#Cc5ccc6c(c5)CN(C5CCC(=O)NC5=O)C6=O)CC4)CC3)nc2)ncc1Cl (stereo partly shown) [UB-181169] | –
– | – | – | – | – | > 1000 nM | > 1000 nM | > 1000 nM | 10 to 100 nM | 10 to 100 nM | CNC(=O)c1ccccc1Nc1nc(Nc2ccc(N3CCN(C(=O)N[C@H]4CC[C@@H](NCCC#Cc5cccc6c5CN(C5CCC(=O)NC5=O)C6=O)CC4)CC3)nc2)ncc1Cl (stereo partly shown) [UB-181173] | –
